# Laboratory results from publication PMC11582173, “Synthesis, cytotoxicity, anti-inflammatory, anti-metastatic and anti-oxidant activities of novel chalcones incorporating 2-phenoxy-N-arylacetamide and thiophene moieties: induction of apoptosis in MCF7 and HEP2 cells” (Naunyn-Schmiedeberg's Archives of Pharmacology, 2024).
# Where “and” joins values, the source holds several entries; their conditions need not be identical. Equal entries are not always repeated.
# How the values were obtained:
# Caspase 9 = test: ELISA, Caspase 9 concentration; format: cell-based, human
# Procedure: (§1) The concentrations of matrix metalloproteinase-2 (MMP2), matrix metalloproteinase-9 (MMP9), Bcl2, BAX, P53, Malondialdehyde (MDA), Glutathione (GSH), caspase 8, caspase 9 and IL-6 were measured quantitatively in 5c treated MCF7 and HEP2 cells using ELISA (Enzyme-Linked Immunosorbent Assay) (Table 4). Gelatinases are a collective word for MMP-2 and MMP-9, where MMP-2 is gelatinase-A and MMP-9 is gelatinase-B. Solid tumor invasion, metastasis, and angiogenesis have long been linked to gelatinases (Das et al. [2021]). […] Bcl2 is a crucial protein that targets apoptosis inhibition. It is regarded as a predictive biomarker or therapeutic target in the diagnosis of cancer due to its broad expression in a variety of cancers (Porter et al. [2009]). […] The pro-apoptotic protein BAX permeabilizes the mitochondrial outer membrane by changing from a cytosolic monomer to a hazardous oligomer triggering the apoptosis process (Fulda and Debatin [2006]). […] P53 transcription factor performs an essential tumor suppressor role by coordinating a wide range of physiological responses, including DNA repair, cell cycle arrest, cellular senescence, cell death, cell differentiation, and metabolism (Liebl and Hofmann [2021]). It was activated in MCF7 and HEP2-treated cells with values (4.28 and 3.109 ng/mL), respectively, compared to their controls (3.44 and 2.06 ng/mL). […]
# MMP2 = test: ELISA, MMP2 concentration; format: cell-based, human
# Procedure: as §1
# [1] = test system: human laryngeal carcinoma (HEP2) cells; test: SRB cytotoxic assay, HEP2; format: cell-based; settings: HEp-2, 48 h
# Procedure: All the prepared compounds were screened at a concentration of 100 µg/mL against six different human cell lines: human laryngeal carcinoma (HEP2), human colorectal carcinoma (HCT116), human breast carcinoma (MCF7), human Lung carcinoma (A549), human liver carcinoma (HEPG2), and normal African Green monkey kidney cell line (VERO). Doxorubicin was used as a positive control for comparison purposes.
# The human laryngeal carcinoma (HEP2), colorectal carcinoma (HCT116), breast carcinoma (MCF7), Lung carcinoma (A549), liver carcinoma (HEPG2), and normal African Green monkey kidney cell line (VERO) were purchased from American Tissue Culture Collection (Rockville, MD, USA). The cells were treated for 48 h with a single dose (100 µg/mL) of all the tested chalcones. […] In brief, the cells were seeded in a 96-well microtiter plate at a concentration of 5×10^3 cells/well in 100 µL fresh RPMI-1640 medium and left to attach to the plates for 24 h. Then, cells were incubated with 100 μL of different concentrations (50, 25, 12.5, 6.25, and 0.0 µg/mL) of 5c in triplicate at 37 °C for 48 h. After that, the cells were fixed with 10 µL cold 100% Trichloroacetic acid (TCA) for 1h at 4 °C. The wells were then washed 1 time with distilled water using (automatic Tecan washer, Germany) and stained for 30 min at room temperature with 50 µL 0.4% SRB dissolved in 1% acetic acid. The plates were air-dried and the dye was solubilized with 100 µl/well of 1M tris base (pH 10.5) for 5 min. The optical density (O.D.) of each well was measured spectrophotometrically at 570 nm with an ELISA microplate reader (Sunrise Tecan reader, Germany) with automatic shaking for 30 seconds before reading. The mean background absorbance was subtracted automatically and mean values for each drug concentration were calculated. The percentage of cell survival was calculated as follows: Survival fraction= O.D. (treated cells)/ O.D. (control cells) (Bhat et al. [2023]).
compound,measurement,setting,value
"COc1ccc(NC(=O)COc2ccc(C=CC(=O)c3cccs3)cc2)cc1 [Compound 5c, N-(4-Methoxyphenyl)-2-(4-(3-oxo-3-(thiophen-2-yl)prop-1-en-1-yl)phenoxy)acetamide]",Caspase9 concentration,"Caspase 9; 5c treated HEP2 cells, untreated 3.70±0.18",27.54 ng/mL and 27.54 ± 0.68 ng/mL
same,Caspase9 concentration,"Caspase 9; 5c treated MCF7 cells, untreated 3.66±0.49",28.03 ng/mL and 28.03 ± 0.49 ng/mL
same,MMP2 concentration,"MMP2; 5c treated HEP2 cells, untreated 461.58±45.11",142.5 pg/mL and 142.5 ± 15.03 pg/mL
same,MMP2 concentration,"MMP2; 5c treated MCF7 cells, untreated 466.90±22.55",185.125 pg/mL and 185.125 ± 30.07 pg/mL
same,IC50,[1],12 µg/mL
same,inhibition at 100 µg/mL,"[1]; single dose 100 µg/mL, read-out: %Inhibition at100 µg/mL HEP2",> 75%
